The record followed here is patent publication US20240018157A1, “CYCLIC COMPOUNDS AND METHODS OF USING SAME” (Schrödinger, Inc., priority 2019, published 2024).

Chain of full-length MALT1 protein His-MALT1(1-824) (Q9UDY8 whole entry): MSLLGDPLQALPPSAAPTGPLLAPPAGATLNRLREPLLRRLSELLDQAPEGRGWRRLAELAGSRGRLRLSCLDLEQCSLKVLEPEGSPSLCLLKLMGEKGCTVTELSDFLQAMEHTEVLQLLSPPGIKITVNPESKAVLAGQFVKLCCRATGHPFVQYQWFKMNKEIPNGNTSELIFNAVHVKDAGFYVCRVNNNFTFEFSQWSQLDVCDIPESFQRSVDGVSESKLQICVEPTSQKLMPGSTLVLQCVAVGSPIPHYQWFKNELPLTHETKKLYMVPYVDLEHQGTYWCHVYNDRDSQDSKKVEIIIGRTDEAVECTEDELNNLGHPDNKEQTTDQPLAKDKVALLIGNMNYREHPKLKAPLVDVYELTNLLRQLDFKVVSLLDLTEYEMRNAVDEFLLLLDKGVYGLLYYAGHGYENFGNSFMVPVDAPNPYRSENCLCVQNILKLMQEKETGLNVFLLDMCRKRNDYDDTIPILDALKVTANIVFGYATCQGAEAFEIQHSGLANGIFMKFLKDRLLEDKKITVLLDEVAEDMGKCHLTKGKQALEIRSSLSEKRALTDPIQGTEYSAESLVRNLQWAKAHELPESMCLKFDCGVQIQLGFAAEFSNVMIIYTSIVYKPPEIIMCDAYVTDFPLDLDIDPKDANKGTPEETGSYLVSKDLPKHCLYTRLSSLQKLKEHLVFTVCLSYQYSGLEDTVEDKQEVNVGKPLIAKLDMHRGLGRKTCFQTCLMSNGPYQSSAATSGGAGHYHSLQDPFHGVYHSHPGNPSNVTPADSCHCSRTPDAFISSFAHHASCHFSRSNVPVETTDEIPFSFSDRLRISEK

One test has as its system IL10 secretion, OCI-LY10 cells. The test can be described thus: Human IL10 secretion assay, Assay 1 (HTRF). The format is cell-based. Particulars: 24 h incubation, read-out: IL-10 Secretion IC50 [nM] Assay 1. The protocol: IL10 is one of the cytokines that are regulated via activation of NF-kB signaling. For example, in ABC-DLBCL cell lines, the activated NF-kB signaling leads to increased IL10 secretion. Inhibition of NF-kB signaling has been shown leading to decreased IL10 secretion.
Assay 1: OCI-LY10 cells were seeded in IMEM supplemented with 20% fetal bovine serum at 3×10^5 cells per well in 96-well round bottom plates (Corning 3799, Corning), treated with 100 nL of 3-fold serial compound dilutions, starting at 10 mM. The final vehicle concentration was 0.1% DMSO in all wells. After 24 h incubation, the cells were transferred to 96-PCR plates (Axygen: PCR-96-FLT-C) and centrifuged, then 16 μL of cell culture media was transferred to HTRF plates and IL10 levels were measured using human IL-10 Assay Kits (Cisbio) using HTRF format. The signals were transformed to percentage of remaining activity by using the high control (HC, median of signal from wells containing cells treated with DMSO) and low control (LC, median of signal from wells with no cells). IC50 values (nM) were determined using 4-parametric curve-fitting and Hill coefficient were obtained using Graph Pad Prism (Graph Pad software, Inc, USA) with non-linear regression analysis.
For orientation: Time-resolved FRET reads energy transfer from a long-lived donor to a nearby acceptor.
In general, IC50 refers to the concentration that gives 50% inhibition. As to `C[C@@]1(C(F)(F)F)CN(C(=O)Nc2cnc(-n3nccn3)c(C#N)c2)c2cnc3cc(Cl)nn3c21` [compound 41, (R)-2-chloro-N-(5-cyano-6-(2H-1,2,3-triazol-2-yl)pyridin-3-yl)-8-methyl-8-(trifluoromethyl)-7,8-dihydro-6H-pyrazolo[1,5-a]pyrrolo[2,3-e]pyrimidine-6-carboxamide], the IC50 fell in the range of 10 to 100 nM.

Consider `C[C@@]1(C(F)(F)F)CN(C(=O)Nc2cc(N=S(C)(C)=O)nc(C(F)(F)F)c2)c2cnc3cc(Cl)nn3c21` [compound 83], for which the IC50 fell in the range of 100 to 1000 nM.

On to `Cc1cc2ncc3c(n2n1)C(C(F)(F)F)CCN3C(=O)Nc1cnc(-n2nccn2)c(Cl)c1` (stereo not shown) [compound 10, N-(5-chloro-6-(2H-1,2,3-triazol-2-yl)pyridin-3-yl)-2-methyl-9-(trifluoromethyl)-8,9-dihydropyrazolo[1,5-a]pyrido[2,3-e]pyrimidine-6(7H)-carboxamide], for which the half-inhibitory concentration (IC50) lay within 100 to 1000 nM.

On to `COc1ncc(NC(=O)N2C[C@@](C)(C(F)(F)F)c3c2cnc2cc(Cl)nn32)cc1Cl` [compound 18, (R)-2-chloro-N-(5-chloro-6-methoxypyridin-3-yl)-8-methyl-8-(trifluoromethyl)-7,8-dihydro-6H-pyrazolo[1,5-a]pyrrolo[2,3-e]pyrimidine-6-carboxamide], for which the half-inhibitory concentration (IC50) was 10 to 100 nM.

Regarding `C[C@@]1(C(F)(F)F)CN(C(=O)Nc2cnc(-n3cc(O)cn3)c(Cl)c2)c2cnc3cc(Cl)nn3c21` [compound 48], the IC50 lay within 10 to 100 nM.

Take `COc1cnc(C(F)(F)F)cc1NC(=O)N1C[C@@](C)(C(F)(F)F)c2c1cnc1cc(Cl)nn21` [compound 66, (R)-2-chloro-N-(5-methoxy-2-(trifluoromethyl)pyridin-4-yl)-8-methyl-8-(trifluoromethyl)-7,8-dihydro-6H-pyrazolo[1,5-a]pyrrolo[2,3-e]pyrimidine-6-carboxamide]: the IC50 is 100 to 1000 nM.

`C[C@@]1(C(F)(F)F)CN(C(=O)Nc2cnc(N=S(C)(C)=O)c(Cl)c2)c2cnc3cc(Cl)nn3c21` [compound 85]: the IC50 lay within 100 to 1000 nM.

As for `CC1(C)CCN(C(=O)Nc2cnc(-n3nccn3)c(Cl)c2)c2cnc3cc(Cl)nn3c21` [compound 7, 2-chloro-N-(5-chloro-6-(2H-1,2,3-triazol-2-yl)pyridin-3-yl)-9,9-dimethyl-8,9-dihydropyrazolo[1,5-a]pyrido[2,3-e]pyrimidine-6(7H)-carboxamide], the half-maximal inhibitory concentration (IC50) was in the range of 10 to 100 nM.

For `C[C@@]1(C(F)(F)F)CN(C(=O)Nc2cnc(-n3cc(CO)cn3)c(Cl)c2)c2cnc3cc(Cl)nn3c21` [compound 57, (R)-2-chloro-N-(5-chloro-6-(4-(hydroxymethyl)-1H-pyrazol-1-yl)pyridin-3-yl)-8-methyl-8-(trifluoromethyl)-7,8-dihydro-6H-pyrazolo[1,5-a]pyrrolo[2,3-e]pyrimidine-6-carboxamide], the IC50 lay within 10 to 100 nM.

Consider `COc1c(Cl)cc(NC(=O)N2C[C@@](C)(C(F)(F)F)c3c2cnc2cc(Cl)nn32)nc1O[C@H]1CCNC1` [compound 63, (R)-2-chloro-N-(4-chloro-5-methoxy-6-(((S)-pyrrolidin-3-yl)oxy)pyridin-2-yl)-8-methyl-8-(trifluoromethyl)-7,8-dihydro-6H-pyrazolo[1,5-a]pyrrolo[2,3-e]pyrimidine-6-carboxamide], for which the IC50 was 10 to 100 nM.

As for `COCc1cnn(-c2ncc(NC(=O)N3C[C@@](C)(C(F)(F)F)c4c3cnc3cc(Cl)nn43)cc2Cl)n1` [compound 79, (R)-2-chloro-N-(5-chloro-6-(4-(methoxymethyl)-2H-1,2,3-triazol-2-yl)pyridin-3-yl)-8-methyl-8-(trifluoromethyl)-7,8-dihydro-6H-pyrazolo[1,5-a]pyrrolo[2,3-e]pyrimidine-6-carboxamide], the IC50 was in the range of 10 to 100 nM.

As to `Cc1cc(NC(=O)N2C[C@@](C)(C(F)(F)F)c3c2cnc2cc(Cl)nn32)cnc1-n1nccn1` [compound 21, (R)-2-chloro-8-methyl-N-(5-methyl-6-(2H-1,2,3-triazol-2-yl)pyridin-3-yl)-8-(trifluoromethyl)-7,8-dihydro-6H-pyrazolo[1,5-a]pyrrolo[2,3-e]pyrimidine-6-carboxamide], the IC50 lay within 10 to 100 nM.

As for `C[C@@]1(C(F)(F)F)CN(C(=O)Nc2cnc(-n3ccnn3)c(C(F)F)c2)c2cnc3cc(Cl)nn3c21` [compound 36, (R)-2-chloro-N-(5-(difluoromethyl)-6-(1H-1,2,3-triazol-1-yl)pyridin-3-yl)-8-methyl-8-(trifluoromethyl)-7,8-dihydro-6H-pyrazolo[1,5-a]pyrrolo[2,3-e]pyrimidine-6-carboxamide], the IC50 fell in the range of 10 to 100 nM.

Take `C[C@@]1(C(F)(F)F)CN(C(=O)Nc2ccnc(C(F)F)c2)c2cnc3cc(Cl)nn3c21` [compound 60, (R)-2-chloro-N-(2-(difluoromethyl)pyridin-4-yl)-8-methyl-8-(trifluoromethyl)-7,8-dihydro-6H-pyrazolo[1,5-a]pyrrolo[2,3-e]pyrimidine-6-carboxamide]: the IC50 lay in the range of 10 to 100 nM.

As to `C[C@@]1(C(F)(F)F)CN(C(=O)Nc2ccnc(C(F)(F)F)c2)c2cnc3cc(Cl)nn3c21` [compound 27, (R)-2-chloro-8-methyl-8-(trifluoromethyl)-N-(2-(trifluoromethyl)pyridin-4-yl)-7,8-dihydro-6H-pyrazolo[1,5-a]pyrrolo[2,3-e]pyrimidine-6-carboxamide], the IC50 lay within 10 to 100 nM.

For the compound `COc1ccc(NC(=O)N2C[C@@](C)(C(F)(F)F)c3c2cnc2cc(Cl)nn32)cc1Cl` [compound 19, (R)-2-chloro-N-(3-chloro-4-methoxyphenyl)-8-methyl-8-(trifluoromethyl)-7,8-dihydro-6H-pyrazolo[1,5-a]pyrrolo[2,3-e]pyrimidine-6-carboxamide], the IC50 lay in the range of 100 to 1000 nM.

In the case of `C[C@@]1(C(F)(F)F)CN(C(=O)Nc2cnc(-n3ccnn3)c(C(F)(F)F)c2)c2cnc3cc(Cl)nn3c21` [compound 44, (R)-N-(6-(1H-1,2,3-triazol-1-yl)-5-(trifluoromethyl)pyridin-3-yl)-2-chloro-8-methyl-8-(trifluoromethyl)-7,8-dihydro-6H-pyrazolo[1,5-a]pyrrolo[2,3-e]pyrimidine-6-carboxamide], the IC50 is 10 to 100 nM.

Another test has as its target full-length MALT1 protein His-MALT1(1-824) (Homo sapiens (Human), UniProt Q9UDY8). Nature of the test: MALT1 protease assay, Assay 2 (1 nM MALT1, Ac-LRSR-AMC substrate). As to conditions: 1 nM MALT1, 50 μM Ac-LRSR-AMC, 2 h pre-incubation, 8 hr incubation at RT. It counts as biochemical. As for the experimental part: MALT1 protease activity was assessed in an in vitro assay using a tetrapeptide as substrate and full-length MALT1 protein His-MALT1(1-824) purified from baculovirus-infected insect cells.
The final assay buffer includes 1 nM (Assay 2) or 2 nM (Assay 1) of MALT1 full-length protein, 50 μM Ac-LRSR-AMC substrate, 50 mM Tris pH 7.5, 600 mM Sodium Citrate, 1 mM DTT, 1 mM EDTA, and 0.05% BSA in 384-well plate format using black microtiter square well plates (Optiplate 384-F, Perkin Elmer).
Test compounds were dissolved in 100% DMSO at stock of 10 mM, with final DMSO concentration 0.1%. Test compounds were pre-incubated with MALT1 protein for 2 h at room temperature. Substrate was added after the pre-incubation and fluorescence signal was measured using Envision at excitation 355 nm and emission 460 nm after 8 hr incubation at RT.
The fluorescence units were transformed to percentage of remaining activity by using the high control (HC, median of fluorescence signal from wells containing MALT1 protein, substrate, and DMSO) and low control (LC, median of fluorescence signal from wells with substrate only) with the formula below: […]
IC50 and Hill coefficient were obtained using Graph Pad Prism (Graph Pad software, Inc, USA) with non-linear regression analysis.
`CNc1cc(NC(=O)N2C[C@@](C)(C(F)(F)F)c3c2cnc2cc(Cl)nn32)cnc1-n1nccn1` [compound 132, (R)-2-chloro-8-methyl-N-(5-(methylamino)-6-(2H-1,2,3-triazol-2-yl)pyridin-3-yl)-8-(trifluoromethyl)-7,8-dihydro-6H-pyrazolo[1,5-a]pyrrolo[2,3-e]pyrimidine-6-carboxamide] had an IC50 of 100 to 1000 nM.

Turning to `CC(O)c1cc2ncc3c(n2n1)C(C)(C(F)(F)F)CN3C(=O)Nc1cnc(-n2nccn2)c(Cl)c1` (stereo not shown) [compound 80, N-(5-chloro-6-(2H-1,2,3-triazol-2-yl)pyridin-3-yl)-2-(1-hydroxyethyl)-8-methyl-8-(trifluoromethyl)-7,8-dihydro-6H-pyrazolo[1,5-a]pyrrolo[2,3-e]pyrimidine-6-carboxamide], the IC50 was in the range of 100 to 1000 nM.

`CN1CC(Oc2cc(NC(=O)N3C[C@@](C)(C(F)(F)F)c4c3cnc3cc(Cl)nn43)cc(C(F)(F)F)n2)C1` [compound 121, (R)-2-chloro-8-methyl-N-(2-((1-methylazetidin-3-yl)oxy)-6-(trifluoromethyl)pyridin-4-yl)-8-(trifluoromethyl)-7,8-dihydro-6H-pyrazolo[1,5-a]pyrrolo[2,3-e]pyrimidine-6-carboxamide] displayed an IC50 of 10 to 100 nM.

Turning to `C[C@@]1(C(F)(F)F)CN(C(=O)NC2CCC3(CC2)CC3)c2cnc3cc(Cl)nn3c21` [compound 172, (R)-2-chloro-8-methyl-N-(spiro[2.5]octan-6-yl)-8-(trifluoromethyl)-7,8-dihydro-6H-pyrazolo[1,5-a]pyrrolo[2,3-e]pyrimidine-6-carboxamide], the half-inhibitory concentration (IC50) is 100 to 1000 nM.

`C[C@@]1(C(F)(F)F)CN(C(=O)Nc2cc(C(F)F)nnc2C#N)c2cnc3cc(Cl)nn3c21` [compound 143, (R)-2-chloro-N-(3-cyano-6-(difluoromethyl)pyridazin-4-yl)-8-methyl-8-(trifluoromethyl)-7,8-dihydro-6H-pyrazolo[1,5-a]pyrrolo[2,3-e]pyrimidine-6-carboxamide] showed an IC50 of 100 to 1000 nM.
